In the experiment the target is human MDM2 protein (amino acids 2-188) (Homo sapiens (Human), UniProt Q00987). As to the kind of experiment: TR-FRET assay, p53-MDM2 Assay 2 (modified). The format is binding. As to conditions: TR-FRET; 0.1 nM MDM2, 0.1 nM Europium labeled streptavidin, Tecan genios Pro reader; read-out: IC50 p53-MDM2 Assay 2. A digest of the protocol: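 IC50 values were curve-fitted from the time-resolved 665/620 nm emission ratio after 340 nm excitation. The assay combined 0.625 nM europium-streptavidin donor with 1.25 nM C-terminally biotinylated MDM2 2–188 (15 min, RT), followed by 15 min with 10 nM Cy5-labeled p53 18–26 acceptor peptide.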
Chain of human MDM2 protein (amino acids 2-188) (Q00987 2-188): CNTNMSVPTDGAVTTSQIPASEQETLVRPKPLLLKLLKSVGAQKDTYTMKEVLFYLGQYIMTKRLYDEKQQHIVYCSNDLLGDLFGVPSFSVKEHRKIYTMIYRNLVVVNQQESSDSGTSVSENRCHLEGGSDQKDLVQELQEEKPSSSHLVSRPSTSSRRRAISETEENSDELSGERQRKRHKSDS
By IC50 is commonly meant the concentration that inhibits the measured activity by half. Consider `COc1cn(C)c(=O)cc1-c1cc2c(n1C(C)C)C(c1ccc(Cl)cc1)N(c1cn(C)nc1C)C2=O` (stereo not drawn) [Example 184, 6-(4-Chloro-phenyl)-5-(1,3-dimethyl-1H-pyrazol-4-yl)-1-isopropyl-2-(5-methoxy-1-methyl-2-oxo-1,2-dihydro-pyridin-4-yl)-5,6-dihydro-1H-pyrrolo[3,4-b]pyrrol-4-one], for which the IC50 came to 5600 pM.

`COc1nc(N(C)C)ncc1-c1cc2c(n1C(C)C)C(c1ccc(Cl)c(F)c1)N(c1cc(Cl)cn(C)c1=O)C2=O` (stereo not drawn) [Example 197, 6-(4-Chloro-3-fluoro-phenyl)-5-(5-chloro-1-methyl-2-oxo-1,2-dihydro-pyridin-3-yl)-2-(2-dimethylamino-4-methoxy-pyrimidin-5-yl)-1-isopropyl-5,6-dihydro-1H-pyrrolo[3,4-b]pyrrol-4-one]: the IC50 came out at 356 pM. The result for `COc1nc(N)ncc1-c1cc2c(n1C(C)C)C(c1ccc(Cl)cc1)N(c1cc(C)nn1C)C2=O` (stereo not drawn) [Example 175, 2-(2-Amino-4-methoxy-pyrimidin-5-yl)-6-(4-chloro-phenyl)-5-(2,5-dimethyl-2H-pyrazol-3-yl)-1-isopropyl-5,6-dihydro-1H-pyrrolo[3,4-b]pyrrol-4-one] reads 3720 pM; that for `COc1ncc(-c2cc3c(n2C(C)C)C(c2ccc(C#N)cc2)N(c2ccc(F)c(Cl)c2)C3=O)c(OC)n1` (stereo not drawn) [Example 40, 4-[5-(3-Chloro-4-fluoro-phenyl)-2-(2,4-dimethoxy-pyrimidin-5-yl)-1-isopropyl-4-oxo-1,4,5,6-tetrahydro-pyrrolo[3,4-b]pyrrol-6-yl]-benzonitrile], 478 pM.

On to `COc1nc(N(C)C)ncc1-c1cc2c(n1C(C)C)C(c1ccc(C#N)cc1)N(c1cc(Cl)c(=O)n(C)c1)C2=O` (stereo not drawn) [Example 185, 4-[5-(5-Chloro-1-methyl-6-oxo-1,6-dihydro-pyridin-3-yl)-2-(2-dimethylamino-4-methoxy-pyrimidin-5-yl)-1-isopropyl-4-oxo-1,4,5,6-tetrahydro-pyrrolo[3,4-b]pyrrol-6-yl]-benzonitrile], for which the half-maximal inhibitory concentration (IC50) worked out at 225 pM. Take `COc1nc(N(C)C)ncc1-c1cc2c(n1C(C)C)C(c1ccc(Cl)cc1)N([C@H]1CC[C@H](OC)CC1)C2=O` (stereo partly drawn) [Example 142, 6-(4-Chloro-phenyl)-2-(2-dimethylamino-4-methoxy-pyrimidin-5-yl)-1-isopropyl-5-(trans-4-methoxy-cyclohexyl)-5,6-dihydro-1H-pyrrolo[3,4-b]pyrrol-4-one]: the IC50 was found to be 740 pM. As to `COc1ncc(-c2cc3c(n2C(C)C)C(c2ccc(C#N)c(F)c2)N(c2cc(Cl)c[nH]c2=O)C3=O)c(OC)n1` (stereo not drawn) [Example 200, 4-[5-(5-Chloro-2-oxo-1,2-dihydro-pyridin-3-yl)-2-(2,4-dimethoxy-pyrimidin-5-yl)-1-isopropyl-4-oxo-1,4,5,6-tetrahydro-pyrrolo[3,4-b]pyrrol-6-yl]-2-fluoro-benzonitrile], the IC50 turned out to be 370 pM. Take `COc1nc(N(C)C)ncc1-c1cc2c(n1C(C)C)C(c1ccc(C#N)cc1)N([C@H]1CC[C@H](O)CC1)C2=O` (stereo partly drawn) [Example 174, 4-[2-(2-Dimethylamino-4-methoxy-pyrimidin-5-yl)-5-(trans-4-hydroxy-cyclohexyl)-1-isopropyl-4-oxo-1,4,5,6-tetrahydro-pyrrolo[3,4-b]pyrrol-6-yl]-benzonitrile]: the IC50 turned out to be 1670 pM. `COc1ccc(S(C)(=O)=O)cc1-c1cc2c(n1C(C)C)C(c1ccc(Cl)cc1)N(c1cn(C)nc1C)C2=O` (stereo not drawn) [Example 183, 6-(4-Chloro-phenyl)-5-(1,3-dimethyl-1H-pyrazol-4-yl)-1-isopropyl-2-(5-methanesulfonyl-2-methoxy-phenyl)-5,6-dihydro-1H-pyrrolo[3,4-b]pyrrol-4-one]: the IC50 was determined as 2570 pM. The result for `COc1ccc(CC(=O)O)cc1-c1cc2c(n1C(C)C)[C@H](c1ccc(Cl)cc1)N(c1cc(Cl)ccc1C)C2=O` [Example 91, {3-[(S)-5-(5-Chloro-2-methyl-phenyl)-6-(4-chloro-phenyl)-1-isopropyl-4-oxo-1,4,5,6-tetrahydro-pyrrolo[3,4-b]pyrrol-2-yl]-4-methoxy-phenyl}-acetic acid] reads 61 pM; that for `COc1cn(C)c(=O)cc1-c1cc2c(n1C(C)C)C(c1ccc(Cl)cc1)N(c1cc(Cl)cnc1OC)C2=O` (stereo not drawn) [Example 205, 5-(5-Chloro-2-methoxy-pyridin-3-yl)-6-(4-chloro-phenyl)-1-isopropyl-2-(5-methoxy-1-methyl-2-oxo-1,2-dihydro-pyridin-4-yl)-5,6-dihydro-1H-pyrrolo[3,4-b]pyrrol-4-one], 198 pM.

On to `COc1nc(N)ncc1-c1cc2c(n1C(C)C)[C@H](c1ccc(C#N)cc1)N(c1ccc(F)c(Cl)c1)C2=O` [Example 171, 4-[(S)-2-(2-Amino-4-methoxy-pyrimidin-5-yl)-5-(3-chloro-4-fluoro-phenyl)-1-isopropyl-4-oxo-1,4,5,6-tetrahydro-pyrrolo[3,4-b]pyrrol-6-yl]-benzonitrile], for which the half-inhibitory concentration (IC50) was 699 pM.

`COc1nc(N)ncc1-c1cc2c(n1C(C)C)C(c1ccc(C#N)cc1)N(c1cc(Cl)c[nH]c1=O)C2=O` (stereo not drawn) [Example 125, 4-[2-(2-Amino-4-methoxy-pyrimidin-5-yl)-5-(5-chloro-2-oxo-1,2-dihydro-pyridin-3-yl)-1-isopropyl-4-oxo-1,4,5,6-tetrahydro-pyrrolo[3,4-b]pyrrol-6-yl]-benzonitrile]: the half-maximal inhibitory concentration (IC50) worked out at 3220 pM.

Regarding `CNc1ncc(-c2cc3c(n2C(C)C)C(c2ccc(C#N)cc2)N(c2c[nH]c(=O)c(Cl)c2)C3=O)c(OC)n1` (stereo not drawn) [Example 137, 4-[5-(5-Chloro-6-oxo-1,6-dihydro-pyridin-3-yl)-1-isopropyl-2-(4-methoxy-2-methylamino-pyrimidin-5-yl)-4-oxo-1,4,5,6-tetrahydro-pyrrolo[3,4-b]pyrrol-6-yl]-benzonitrile], the IC50 worked out at 321 pM. Consider `COc1nc(N(C)C)ncc1-c1c(C(=O)O)c2c(n1C(C)C)C(c1ccc(Cl)cc1)N(c1cc(Cl)c(=O)n(C)c1)C2=O` (stereo not drawn) [Example 226, 5-(5-Chloro-1-methyl-6-oxo-1,6-dihydro-pyridin-3-yl)-6-(4-chloro-phenyl)-2-(2-dimethylamino-4-methoxy-pyrimidin-5-yl)-1-isopropyl-4-oxo-1,4,5,6-tetrahydro-pyrrolo[3,4-b]pyrrole-3-carboxylic acid], for which the IC50 came out at 132 pM. Take `COc1nc(N)ncc1-c1cc2c(n1C(C)C)[C@H](c1ccc(C#N)cc1)N(c1cccc(Cl)c1F)C2=O` [Example 154, 4-[(S)-2-(2-Amino-4-methoxy-pyrimidin-5-yl)-5-(3-chloro-2-fluoro-phenyl)-1-isopropyl-4-oxo-1,4,5,6-tetrahydro-pyrrolo[3,4-b]pyrrol-6-yl]-benzonitrile]: the IC50 amounted to 328 pM.

Take `COc1ncc(-c2cc3c(n2C(C)C)C(c2ccc(C#N)cc2)N(c2c[nH]c(=O)c(Cl)c2)C3=O)c(OC)n1` (stereo not drawn) [Example 135, 4-[5-(5-Chloro-6-oxo-1,6-dihydro-pyridin-3-yl)-2-(2,4-dimethoxy-pyrimidin-5-yl)-1-isopropyl-4-oxo-1,4,5,6-tetrahydro-pyrrolo[3,4-b]pyrrol-6-yl]-benzonitrile]: the IC50 came out at 427 pM. The result for `CCOC(=O)Cc1cnc(OC)c(-c2cc3c(n2C(C)C)C(c2ccc(C#N)cc2)N(c2cccc(Cl)c2F)C3=O)c1` (stereo not drawn) [Example 83, {5-[5-(3-Chloro-2-fluoro-phenyl)-6-(4-cyano-phenyl)-1-isopropyl-4-oxo-1,4,5,6-tetrahydro-pyrrolo[3,4-b]pyrrol-2-yl]-6-methoxy-pyridin-3-yl}-acetic acid ethyl ester] reads 4160 pM.
